The values that follow come from patent US12404267B2, “Solid state forms of n-[2-(2-{4-[2-(6,7-dimethoxy-3,4-dihydro-2(1H)-isoquinolinyl)ethyl]phenyl}-2H-tetrazol-5-yl)-4,5-dimethoxyphenyl]-4-oxo-4H-chromene-2-carboxamide and of its mesylate salt” (ASSIA CHEMICAL INDUSTRIES LTD., priority 2019, dated 2025).

Counter-ions that a name gives are not always drawn.

This series can be described thus: Solubility of solid state forms of Encequidar mesylate. The format is physicochemical. The note with it: compared with amorphous Encequidar mesylate; no medium or method printed.

Take `COc1cc2c(cc1OC)CN(CCc1ccc(-n3nnc(-c4cc(OC)c(OC)cc4NC(=O)c4cc(=O)c5ccccc5o4)n3)cc1)CC2` [Form B of Encequidar mesylate]: the solubility entry is listed as “surprisingly greater than the solubility of amorphous Encequidar mesylate”.
